Reference: US6602487B1, “Methods and tests for producing and for inhibiting coronary artery vasospasms” (Dimera Incorporated, priority 1997, dated 2003)
“Also recorded” adds a separate entry of the source.

Tests used:
coronary arteries [1] = test system: coronary arteries
coronary arteries [2] = assay: Mechanical injury coronary vasospasm protocol (Protocol 2); format: in vivo, rhesus monkeys (Macaca mulatta); settings: serotonin 67 μmol/liter IC; U46619 67 nmol/liter or 1 nmol/liter; ET1 ≦10 nmol/liter; AII ≦10 μmol/liter
Source text: A separate mechanical injury, Protocol 2, was used in three additional monkeys (one male, two ovx). The injury step of Protocol 2, was deliberate mechanical stretching of the LAD or left main coronary artery with a 5F catheter.
In Protocol 2, steps 1-5 were the same as in Protocol 1. The remaining steps were as follows:
7. IC injection of angiotensin II (sequential doses to 10 μmol/liter);
8. Injury by stretching the coronary artery with a 5F catheter;
9. IC injection of serotonin (sequential doses to 1 mmol/liter);
(§1) 10. IC injection 15 minutes later with 1 or 10 μmol/liter nitrendipine or Ro 40-5967 (mibefradil);
11. IC injection of […] (sequential doses to 10 μmol/liter); and
(§2) 12. IC injection 15 minutes later with 1 or 10 μmol/liter nitrendipine or Ro 40-5967.
Putative coronary vasospasm stimuli were judged primarily by actions on large coronary artery diameters, analyzed as diameter of the most proximal focus of vasospasm at end-diastole from video-taped images recorded at 30 frames/s. We used the image analysis program Image Pro to measure the diameters from single frames acquired with an Imagraph frame grabber in a Pentium computer. We used the 3F catheter tip radio-opaque marker ring (1.0 mm) for calibration and determined minimal and maximal diameters just distal to the constriction. All responses to interventions were also X-ray imaged immediately (15 to 30 s after injection) and at exactly 3 minutes (and 15 minutes if there was vasospasm) after injection.

coronary arteries [3] = assay: animal or person; settings: Macaca mulatta, read-out: EC50 (-log mol/liter) (converted)
coronary arteries [4] = assay: Relief of coronary vasospasm by intracoronary Ca2+ antagonist; format: in vivo, rhesus monkeys (Macaca mulatta)
Description: The eighth to tenth steps, which were 1 ml injections of 100 μmol/liter serotonin and 1 μmol/liter U46619 combined, were the critical steps. These concentrations of serotonin and U46619, injected in three repeated challenges, provoked drug-induced vasospasm. Sensitivity was determined by whether the vasospasm response occurred to the first, second or third stimulus, allowing at least a 7-minute delay from one injection to the next. For three of these seven ovx monkeys, 1-2 nM endothelin-1 (alone and plus serotonin) and 1 μmol/liter angiotensin-II (alone and plus serotonin) steps were administered between steps 10 and 11 (as additional challenges), but these extra steps never produced vasospasm. […] Step 12 was a Ca^2+ antagonist, either nitrendipine or mibefradil, as a vasodilator to relieve the vasospasm or cardiogenic shock that was the end point.
as §1, §2
To allow monkeys to recover and prevent death due to cardiogenic shock, we followed combined serotonin and U46619 stimulation with an IC Ca^2+ antagonist, either nitrendipine or mibefradil, at the end of the 15 minute vasospasm, except for that in FIG. 2. […] In monkeys with severe vasoconstriction and low heart rates (<90 beats/minute), Ca^2+ antagonists effected increases to 90 to 200 beats/minute due to reversal of atrioventricular […] conduction blocks (evident in the recovery of heart rate shown in Table 2).

Row | Compound | Spasms/N (coronary arteries [1]; Protocol 1, number of animals with vasospasm / number of animals) | ED50 (-log mol/liter) (coronary arteries [1]; Protocol 1, syringe concentration of the named vasoconstrictor causing 50% reduction of diameter from control, combined stimuli with 100 μmol/liter serotonin) | vasoactivity / constriction of arteries on IC injection of single agent (coronary arteries [1]; serotonin 67 nmol/liter to 667 μmol/liter, U46619 6.7 to 2,000 nmol/liter) | coronary vasospasm on IC injection (no mechanical injury) (coronary arteries [1]; serotonin 6.7 or 200 μmol/liter alone, U46619 6.7 to 2,000 nmol/liter alone, AII up to 200 nmol/liter, combination 6.7 μmol/liter serotonin and 67 nmol/liter U46619, triple combination with ET1) | coronary vasospasm with mechanical injury (5F catheter stretch) (coronary arteries [2]) | EC50 (coronary arteries [3]) [mol/L] | relief of coronary vasospasm (coronary arteries [4]; IC injection, nitrendipine 1 to 10 μmol/liter, mibefradil 0.1 to 10 μmol/liter, not allowing for dilution) | blood pressures returned to normal ranges (minimums, systolic/diastolic) (coronary arteries [4]; Mibefradil IC 0.1 to 10 μmol/liter, from diastolic levels as low as 10 to 20 mm Hg) | blood pressure after IC mibefradil (coronary arteries [4]; one MPA monkey of Example 2, nadir 38/20 mm Hg, after 15 minutes vasospasm)
1 | NCCc1c[nH]c2ccc(O)cc12 [Serotonin, serotonin] | 0/8 | 2.5 -log mol/liter | vasoactive in all animals | vasospasm could not be found | caused coronary vasospasm at multiple sites; also recorded: Vasospasm was stimulated | 0.000158 |  |  | 
2 | COCC(=O)O[C@]1(CCN(C)CCCc2nc3ccccc3[nH]2)CCc2cc(F)ccc2[C@@H]1C(C)C [mibefradil] |  |  |  |  |  |  | immediately effective in relieving vasospasm | 100/60 | 124/84
